{"source": "patent US20240174690A1", "about": "“ANNULATED 2-AMINO-3-CYANO THIOPHENES AND DERIVATIVES FOR THE TREATMENT OF CANCER” (BOEHRINGER INGELHEIM INTERNATIONAL GMBH, priority 2021, published 2024)", "key": {"KRAS (G12C)::SOS1": {"target": "KRAS (G12C)::SOS1 (Homo sapiens (Human), UniProt P01116, C118S/C51S/C80L/G12C)", "sequence (P01116 other isoform, or with tags, fused parts or gaps G12C/C51S/C80L/C118S)": "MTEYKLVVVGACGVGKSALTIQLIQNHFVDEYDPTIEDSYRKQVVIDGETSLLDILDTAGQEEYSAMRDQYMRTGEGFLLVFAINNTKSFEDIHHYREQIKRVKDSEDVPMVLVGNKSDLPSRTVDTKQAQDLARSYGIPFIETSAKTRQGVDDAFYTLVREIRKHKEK", "assay": "KRAS::SOS1 AlphaScreen binding assay, KRAS G12C", "outline": "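KRAS 1-169 (biotinylated avi-tag) with GST-SOS1 564-1049 and 10 µM GDP in PBS/0.1% BSA/0.05% Tween 20: WT and G13D 10 nM each with 10 nM SOS1; G12D 10 nM and G12C 7.5 nM with 5 nM SOS1. After 30 min, glutathione acceptor/streptavidin donor beads were added for 60 min at RT in the dark, then AlphaScreen read; 4-parameter IC50.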"}, "AsPC-1 cells": {"tested_on": "AsPC-1 cells", "assay": "AsPC-1 CTG proliferation assay (120 h) (pancreatic cancer, G12D)", "type": "cell-based", "details": "Homo sapiens, ASPC1", "outline": "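CellTiter-Glo luminescence, normalised to DMSO wells, measured viability after 120 h compound exposure. Cells were AsPC-1 pancreatic cancer (G12D) plated at 2000 per well in RPMI/10% FCS the day before dosing. IC50 derived by four-parameter regression.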"}, "[1]": {"tested_on": "KRAS G12D-dependent Ba/F3 cells", "assay": "Ba/F3 proliferation assay, KRAS G12D", "type": "cell-based", "details": "Mus musculus, BaF3, 72 h, AlamarBlue", "outline": "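Proliferation of mutant-KRAS-driven Ba/F3 cells cultured without IL-3 is followed with AlamarBlue after compound addition. Curves are fitted from duplicate wells.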"}}}
{"smiles": "C[C@H](Oc1cc(N2CCNC3(CC3)C2)nc(-c2onc3c2CCC[C@@]32CCCc3sc(N)c(C#N)c32)n1)[C@@H]1C[C@@H](F)CN1C", "note": "[I-45]", "values": [{"measurement": "IC50", "setting": "KRAS (G12C)::SOS1", "result": 4, "unit": "nM"}, {"measurement": "IC50", "setting": "AsPC-1 cells", "result": 32, "unit": "nM"}, {"measurement": "IC50", "setting": "[1]", "result": 11, "unit": "nM"}]}
{"smiles": "C[C@H](Oc1cc(N2C[C@@H](N(C)C)[C@@H](O)C2)nc(-c2noc3c2CCC[C@@]32CCCc3sc(N)c(C#N)c32)n1)[C@@H]1CCCN1C", "note": "[II-10]", "values": [{"measurement": "IC50", "setting": "KRAS (G12C)::SOS1", "result": 7, "unit": "nM"}, {"measurement": "IC50", "setting": "AsPC-1 cells", "result": 811, "unit": "nM"}, {"measurement": "IC50", "setting": "[1]", "result": 116, "unit": "nM"}]}
{"smiles": "COCCNC(=O)c1ccn(-c2cc(O[C@@H](C)[C@@H]3CCCN3C)nc(-c3onc4c3CCC[C@@]43CCCc4sc(N)c(C#N)c43)n2)n1", "note": "[I-58]", "values": [{"measurement": "IC50", "setting": "KRAS (G12C)::SOS1", "result": 1, "unit": "nM"}, {"measurement": "IC50", "setting": "AsPC-1 cells", "result": 696, "unit": "nM"}, {"measurement": "IC50", "setting": "[1]", "result": 11, "unit": "nM"}]}
{"smiles": "C[C@H](Oc1cc(N2CCC(N(C)C)CC2)nc(-c2noc3c2CCC[C@@]32CCCc3sc(N)c(C#N)c32)n1)[C@@H]1CCCN1C", "note": "[II-48]", "values": [{"measurement": "IC50", "setting": "KRAS (G12C)::SOS1", "result": 7, "unit": "nM"}, {"measurement": "IC50", "setting": "AsPC-1 cells", "result": 1490, "unit": "nM"}, {"measurement": "IC50", "setting": "[1]", "result": 70, "unit": "nM"}]}
{"smiles": "C[C@H](Oc1cc(-n2ccc(C(=O)NC3COC3)n2)nc(-c2noc3c2CCC[C@@]32CCCc3sc(N)c(C#N)c32)n1)[C@@H]1CCCN1C", "note": "[II-25]", "values": [{"measurement": "IC50", "setting": "KRAS (G12C)::SOS1", "result": 1, "unit": "nM"}, {"measurement": "IC50", "setting": "AsPC-1 cells", "result": 891, "unit": "nM"}, {"measurement": "IC50", "setting": "[1]", "result": 25, "unit": "nM"}]}
{"smiles": "C[C@H](Oc1cc(-n2nccn2)nc(-c2onc3c2CCC[C@@]32CCCc3sc(N)c(C#N)c32)n1)[C@@H]1CCCN1C", "note": "[I-29]", "values": [{"measurement": "IC50", "setting": "KRAS (G12C)::SOS1", "result": 3, "unit": "nM"}, {"measurement": "IC50", "setting": "AsPC-1 cells", "result": 10300, "unit": "nM"}, {"measurement": "IC50", "setting": "[1]", "result": 71, "unit": "nM"}]}
{"smiles": "C[C@H]1CN(C)CCCN1c1cc(N2CC[C@H](N(C)C)C2)nc(-c2noc3c2CCC[C@@]32CCCc3sc(N)c(C#N)c32)n1", "note": "[II-16]", "values": [{"measurement": "IC50", "setting": "KRAS (G12C)::SOS1", "result": 74, "unit": "nM"}, {"measurement": "IC50", "setting": "AsPC-1 cells", "result": 1920, "unit": "nM"}, {"measurement": "IC50", "setting": "[1]", "result": 183, "unit": "nM"}]}
{"smiles": "CO[C@@H]1C[C@@H]([C@H](C)Oc2cc(-c3ccn(C)n3)nc(-c3onc4c3CCC[C@@]43CCCc4sc(N)c(C#N)c43)n2)N(C)C1", "note": "[I-23]", "values": [{"measurement": "IC50", "setting": "KRAS (G12C)::SOS1", "result": 3, "unit": "nM"}, {"measurement": "IC50", "setting": "AsPC-1 cells", "result": 8160, "unit": "nM"}, {"measurement": "IC50", "setting": "[1]", "result": 27, "unit": "nM"}]}
{"smiles": "C[C@H](Oc1cc(N2CCN(C)C3(CC3)C2)nc(-c2onc3c2CCC[C@@]32CCCc3sc(N)c(C#N)c32)n1)[C@@H]1CCCN1C", "note": "[I-41]", "values": [{"measurement": "IC50", "setting": "KRAS (G12C)::SOS1", "result": 6, "unit": "nM"}, {"measurement": "IC50", "setting": "AsPC-1 cells", "result": 297, "unit": "nM"}, {"measurement": "IC50", "setting": "[1]", "result": 11, "unit": "nM"}]}
{"smiles": "[2H]C([2H])([2H])N1C[C@H](F)C[C@H]1[C@H](C)Oc1cc(N2CCN(C)C3(CC3)C2)nc(-c2noc3c2CCC[C@@]32CCCc3sc(N)c(C#N)c32)n1", "note": "[II-209]", "values": [{"measurement": "IC50", "setting": "KRAS (G12C)::SOS1", "result": 4, "unit": "nM"}, {"measurement": "IC50", "setting": "AsPC-1 cells", "result": 59, "unit": "nM"}, {"measurement": "IC50", "setting": "[1]", "result": 18, "unit": "nM"}]}
{"smiles": "C[C@H](Oc1cc(-n2ccc(C(=O)N[C@@H]3CCOC3)n2)nc(-c2onc3c2CCC[C@@]32CCCc3sc(N)c(C#N)c32)n1)[C@@H]1CCCN1C", "note": "[I-56]", "values": [{"measurement": "IC50", "setting": "KRAS (G12C)::SOS1", "result": 2, "unit": "nM"}, {"measurement": "IC50", "setting": "AsPC-1 cells", "result": 695, "unit": "nM"}, {"measurement": "IC50", "setting": "[1]", "result": 16, "unit": "nM"}]}
{"smiles": "C[C@H](Oc1cc(-c2ccn([C@H]3CCCOC3)n2)nc(-c2noc3c2CCC[C@@]32CCCc3sc(N)c(C#N)c32)n1)[C@@H]1CCCN1C", "note": "[II-42]", "values": [{"measurement": "IC50", "setting": "KRAS (G12C)::SOS1", "result": 2, "unit": "nM"}, {"measurement": "IC50", "setting": "AsPC-1 cells", "result": 1890, "unit": "nM"}, {"measurement": "IC50", "setting": "[1]", "result": 26, "unit": "nM"}]}
{"smiles": "C[C@H](Oc1cc(N2CCNC3(COC3)C2)nc(-c2noc3c2CCC[C@@]32CCCc3sc(N)c(C#N)c32)n1)[C@@H]1CCCN1C", "note": "[II-31]", "values": [{"measurement": "IC50", "setting": "KRAS (G12C)::SOS1", "result": 2, "unit": "nM"}, {"measurement": "IC50", "setting": "AsPC-1 cells", "result": 42, "unit": "nM"}, {"measurement": "IC50", "setting": "[1]", "result": 4, "unit": "nM"}]}
{"smiles": "C[C@H](Oc1cc(-c2ccn(C[C@@H]3CCCO3)n2)nc(-c2noc3c2CCC[C@@]32CCCc3sc(N)c(C#N)c32)n1)[C@@H]1CCCN1C", "note": "[II-43]", "values": [{"measurement": "IC50", "setting": "KRAS (G12C)::SOS1", "result": 1, "unit": "nM"}, {"measurement": "IC50", "setting": "AsPC-1 cells", "result": 2050, "unit": "nM"}, {"measurement": "IC50", "setting": "[1]", "result": 34, "unit": "nM"}]}
{"smiles": "C[C@H](Oc1cc(N2CC(N(C)C)C2)nc(-c2noc3c2CCC[C@@]32CCCc3sc(N)c(C#N)c32)n1)[C@@H]1CCCN1C", "note": "[II-7]", "values": [{"measurement": "IC50", "setting": "KRAS (G12C)::SOS1", "result": 5, "unit": "nM"}, {"measurement": "IC50", "setting": "AsPC-1 cells", "result": 1640, "unit": "nM"}, {"measurement": "IC50", "setting": "[1]", "result": 94, "unit": "nM"}]}
{"smiles": "C[C@H](Oc1nc(-c2onc3c2CCC[C@@]32CCCc3sc(N)c(C#N)c32)cc(N2CCN(C)C3(CC3)C2)n1)[C@@H]1CCCN1C", "note": "[I-40]", "values": [{"measurement": "IC50", "setting": "KRAS (G12C)::SOS1", "result": 88, "unit": "nM"}, {"measurement": "IC50", "setting": "[1]", "result": 243, "unit": "nM"}]}
{"smiles": "C[C@H](NC(=O)c1ccn(-c2cc(O[C@@H](C)[C@@H]3CCCN3C)nc(-c3onc4c3CCC[C@@]43CCCc4sc(N)c(C#N)c43)n2)n1)c1ccccn1", "note": "[I-59]", "values": [{"measurement": "IC50", "setting": "KRAS (G12C)::SOS1", "result": 1, "unit": "nM"}, {"measurement": "IC50", "setting": "AsPC-1 cells", "result": 444, "unit": "nM"}, {"measurement": "IC50", "setting": "[1]", "result": 13, "unit": "nM"}]}
{"smiles": "C[C@H](Oc1cc(N2CCNC(C)(C)C2)nc(-c2noc3c2CCC[C@@]32CCCc3sc(N)c(C#N)c32)n1)[C@@H]1CCCN1C", "note": "[II-32]", "values": [{"measurement": "IC50", "setting": "KRAS (G12C)::SOS1", "result": 2, "unit": "nM"}, {"measurement": "IC50", "setting": "AsPC-1 cells", "result": 385, "unit": "nM"}, {"measurement": "IC50", "setting": "[1]", "result": 3, "unit": "nM"}]}
{"smiles": "C[C@H](Oc1cc(-n2ccnn2)nc(-c2onc3c2CCC[C@@]32CCCc3sc(N)c(C#N)c32)n1)[C@@H]1CCCN1C", "note": "[I-32]", "values": [{"measurement": "IC50", "setting": "KRAS (G12C)::SOS1", "result": 2, "unit": "nM"}, {"measurement": "IC50", "setting": "AsPC-1 cells", "result": 4440, "unit": "nM"}, {"measurement": "IC50", "setting": "[1]", "result": 14, "unit": "nM"}]}
{"smiles": "C[C@H](Oc1cc(N2CCN(C)C3(COC3)C2)nc(-c2noc3c2CCC[C@@]32CCCc3sc(N)c(C#N)c32)n1)[C@@H]1CCCN1C", "note": "[II-13]", "values": [{"measurement": "IC50", "setting": "KRAS (G12C)::SOS1", "result": 2, "unit": "nM"}, {"measurement": "IC50", "setting": "AsPC-1 cells", "result": 251, "unit": "nM"}, {"measurement": "IC50", "setting": "[1]", "result": 24, "unit": "nM"}]}
{"smiles": "C[C@H](Oc1nc(-c2onc3c2CCC[C@@]32CCCc3sc(N)c(C#N)c32)cc(N2CCNC3(CC3)C2)n1)[C@@H]1CCCN1C", "note": "[I-2]", "values": [{"measurement": "IC50", "setting": "KRAS (G12C)::SOS1", "result": 45, "unit": "nM"}, {"measurement": "IC50", "setting": "[1]", "result": 124, "unit": "nM"}]}
{"smiles": "C[C@H](O)Cn1ccc(-c2cc(O[C@@H](C)[C@@H]3CCCN3C)nc(-c3onc4c3CCC[C@@]43CCCc4sc(N)c(C#N)c43)n2)n1", "note": "[I-31]", "values": [{"measurement": "IC50", "setting": "KRAS (G12C)::SOS1", "result": 2, "unit": "nM"}, {"measurement": "IC50", "setting": "[1]", "result": 43, "unit": "nM"}]}
